Assay results reported in patent publication US5439932A, “Substituted amine derivatives having anti-hyperlipemia activity” (Banyu Pharmaceutical Co., Ltd., priority 1990, dated 1995).
Where a name gives a salt, the structure may show the parent alone.

These compounds were tested against T1, Human squalene epoxidase (Homo sapiens, UniProt Q14534) (assay: Human squalene epoxidase inhibition action). Conditions: solubilized squalene epoxidase fraction from human hepatoma (Hep-G2) cells; 8 μM 3H-squalene; 37° C., 60 minutes; pH 7.5; read-out: 50% inhibitory concentration (IC50).
T1 construct: endogenous in cells; host or cells: Hep-G2 (human hepatoma) cells, microsomes solubilized with Triton X-100
T1 sequence (Q14534 whole entry): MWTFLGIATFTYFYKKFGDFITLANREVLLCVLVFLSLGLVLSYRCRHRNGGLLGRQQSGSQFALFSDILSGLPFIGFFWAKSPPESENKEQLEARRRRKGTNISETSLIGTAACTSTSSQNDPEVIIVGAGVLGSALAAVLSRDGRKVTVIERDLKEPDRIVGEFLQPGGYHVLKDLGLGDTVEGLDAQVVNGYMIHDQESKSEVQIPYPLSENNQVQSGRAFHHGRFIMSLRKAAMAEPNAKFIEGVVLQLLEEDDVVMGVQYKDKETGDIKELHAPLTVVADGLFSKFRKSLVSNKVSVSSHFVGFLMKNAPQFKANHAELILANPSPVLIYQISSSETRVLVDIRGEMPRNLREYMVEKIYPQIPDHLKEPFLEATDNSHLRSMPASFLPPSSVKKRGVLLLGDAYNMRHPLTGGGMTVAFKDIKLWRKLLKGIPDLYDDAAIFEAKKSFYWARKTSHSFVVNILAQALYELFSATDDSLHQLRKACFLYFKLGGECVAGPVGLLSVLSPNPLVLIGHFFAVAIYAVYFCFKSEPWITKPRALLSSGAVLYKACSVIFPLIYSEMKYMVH
Assay type: biochemical
Procedure: Squalene epoxidase inhibition action (1) Preparation of squalene epoxidase Human squalene epoxidase is prepared based on the method disclosed in J. Biol. Chem. 245, 1670 (1970) and ibid. 250, 1572 (1975). Namely, human hepatoma (Hep-G2) cells are cultured at 37° C. under 5% carbon dioxide-mixed air. After completion of the culture the cells are scraped and recovered by centrifugation. The cells are suspended (1×10^8 cells/ml) in a 0.1M Tris-HCl buffer (pH 7.5), the suspension is homogenized and centrifuged at 9,750×g for 10 minutes, and the sediment is washed with a 0.1M Tris-HCl buffer (pH 7.5) and centrifuged at 105,000×g for 1 hour. […] After this solubilization treatment, the solution is diluted with 1 mM EDTA and 1 mM dithiothreitol so that the Triton X-100 concentration becomes 0.125%, and then centrifuged at 105,000×g for 1 hour. The resulting supernatant is used in the later test as a squalene epoxidase fraction. (2) Method for measurement of squalene epoxidase activity Measurement of human squalene epoxidase activity is carried out based on the method disclosed in J. Biol. Chem. 245, 1670 (1970). Namely, […] of a dimethylsulfoxide solution of a test drug is added to a solution consisting of 0.2 ml of the squalene epoxidase fraction prepared in (1) [Protein amount 0.4 mg, 0.1% Triton X-100, […] buffer (pH 7.5)], 100 μM FAD, 1 mM NADPH, 1 mM EDTA and 8 μM ^3 H-squalene-Tween 80 suspension to make the total volume 0.3 ml, and the mixture is subjected to shaking reaction at 37° C. for 60 minutes. 0.3 ml of a 10% potassium hydroxide-methanol solution is added to stop the reaction, and the mixture is heated at 75° C. for 1 hour. Then, after extraction of the nonsaponified substances, the extract is concentrated to dryness in a stream of nitrogen. […] The position of the formed ^3 H-squalene-2,3-epoxide on TLC is ascertained using as a marker ergosterol acetate and the ^3 H-squalene-2,3-epoxidepart of TLC is cut out. The TLC piece is immersed in a toluene series scintillator and measurement is carried out using a liquid scintillation counter. By this, 50% inhibitory concentrations (IC50 values) of compounds of the invention on squalene epoxidase are determined, and the results are shown in the following table.

Structure (SMILES) | IC50 [nM]
CCN(C/C=C/C#CC(C)(C)OC)Cc1ccc(COC/C=C/c2ccsc2)o1 [Example 30, (E,E)-N-ethyl-N-(6-methoxy-6-methyl-2-hepten-4-ynyl)-5-[3-(3-thienyl)-2-propenyloxymethyl]-2-furylmethylamine hydrochloride] | 0.8
CCN(C/C=C/C#CC(C)(C)CC)CCOCCOc1cccc(-c2ccsc2)c1 [Example 35, (E)-N-ethyl-N-(6,6-dimethyl-2-octen-4-ynyl)-2-[2-[3-(3-thienyl)phenoxy]ethoxy]ethylamine hydrochloride] | 0.4
CCN(CC#CC#CC(C)(C)OC)Cc1ccc(/C=C/COCc2ccsc2)o1 [Example 48, (E)-N-ethyl-N-(6-methoxy-6-methyl-2,4-heptadiynyl)-5-[3-(3-thienylmethoxy)-1-propenyl]-2-furylmethylamine] | 0.5
CCN(CC#C/C=C/C(C)(C)C)Cc1ccc(COC/C=C/c2ccsc2)o1 [Example 46, (E,E)-N-ethyl-N-(6,6-dimethyl-4-hepten-2-ynyl)-5-[3-(3-thienyl)-2-propenyloxymethyl]-2-furylmethylamine] | 0.4
CN(C/C=C/C#CC(C)(C)C)Cc1ccc(COC/C=C/c2ccsc2)o1 [Example 38, (E,E)-N-methyl-N-(6,6-dimethyl-2-hepten-4-ynyl)-5-[3-(3-thienyl)-2-propenyloxymethyl]-2-furylmethylamine] | 0.2
CCN(C/C=C/C#CC(C)(C)OC)Cc1cccc(COC/C=C/c2ccsc2)c1 [Example 7, (E,E)-N-ethyl-N-7(6-methoxy-6-methyl-2-hepten-4-ynyl)-3-3-(3-thienyl)-2-propenyloxymethyl]benzylamine hydrochloride] | 0.3
